# According to US20250302967A1, “PEPTIDE FORMULATIONS AND USES THEREOF” (Amytrx Therapeutics, Inc., priority 2022, published 2025):
# Positions of bridges follow the written chain, without caps; N, C: chain ends. Residues, ends and D or L forms follow the SMILES beside them.
# How the values were obtained:
# [1] = 7-day repeat dose tolerance dermal study in Gottingen Mini-Pigs (non-GLP); type: in vivo
# Text: The purpose of this study was to evaluate the dermal dose tolerance at the maximum feasible dose (concentration and application rate) of Compound 1 in Formulation 1, Formulation 2, or Formulation 3 of Table 2, including placebo (F1, F2, or F3 without Compound 1) when applied by topical dermal application to Gottingen Mini-Pigs twice daily for seven days.
# Three experimentally naive male Gottingen Mini-Pigs, 4-5 months old and weighing 10.6-13.8 kilograms at the outset of the study had four dose sites (100 cm^2 per site) numbered 1, 2, 3, and 4. The dose sites were not rotated.
# Animals were dosed with all formulations twice daily (two doses per site per day; 6 hours+/−30 minutes between the first and second dose for 7 days). Mortality/morbidity was performed twice daily and once on the day of scheduled euthanasia. On Days 1-7 animals were observed prior to dosing and at 1-2 hours post-dose. A final observation was recorded on Day 8 prior to scheduled euthanasia. Body weights were recorded on Days 1 and 7. Food consumption was determined daily. Blood for toxicokinetic evaluation was collected on Days 1 and 7 at 0.5, 1, 2, 4, 6, 8 and 24 hours post-dose. […] Animals were sacrificed on Day 8 and a gross necropsy was performed. The dosing area (skin) was collected and preserved.
# [2] = tested on: Phorbol Myristoyl Acetate (PMA)-induced skin inflammation; type: in vivo; conditions: mouse
# Text: The anti-inflammatory efficacy of Compound 1 on a Phorbol Myristoyl Acetate (PMA)-induced skin inflammatory mouse model (irritant contact dermatitis) is shown following topical application of a formulation including Compound 1 herein.
# [3] = tested on: mild to moderate atopic dermatitis; type: in vivo, human
# Protocol: 26 subjects having mild to moderate atopic dermatitis and about 3-70% treatable body surface area (BSA) were enrolled in the study. […] Dosing was targeted at 0.62 g/kg/day of the formulation or 6.82 mg/kg/day of Compound 1. Based on an average body weight of 60 kg, and average BSA of 1.62 m2, a recommended starting dose of 2.5 g of a formulation (for example, Formulation 1 or 4; Formulations 2, 3, 5, and 6 may be dosed higher due to the lower concentration of Compound 1) is proposed as a starting point. Severity of atopic dermatitis (vIGA-AD score), treatable BSA, and the following 11 signs and symptoms were assessed: dryness, erythema, burning/stinging, erosion/ulceration, edema/swelling, itching, pain treated area, crusting, vesiculation, flaking/scaling, and bleeding.
# [4] = at EOT or at 2-week follow-up visit
structure (smiles),measurement,setting,value
CSCC[C@@H]1NC(=O)[C@H](CC(C)C)NC(=O)[C@H](CCCCN)NC(=O)[C@H](CCC(N)=O)NC(=O)[C@H](CCCNC(=N)N)NC(=O)[C@H](CCCCN)NC(=O)[C@H](CCCNC(=N)N)NC(=O)[C@H](CCC(N)=O)NC(=O)[C@H](C(C)C)NC(=O)[C@@H](NC(=O)[C@@H]2CCCN2C(=O)[C@H](C)NC(=O)[C@H](CC(C)C)NC(=O)[C@H](CC(C)C)NC(=O)[C@H](C)NC(=O)[C@H](CC(C)C)NC(=O)[C@H](CC(C)C)NC(=O)[C@@H](NC(=O)[C@H](C)NC(=O)[C@@H]2CCCN2C(=O)[C@H](CC(C)C)NC(=O)[C@H](CC(C)C)NC(=O)[C@H](C)NC(=O)[C@@H](NC(=O)[C@H](C)NC(=O)[C@H](C)N)C(C)C)C(C)C)CSSC[C@@H](C(=O)O)NC(=O)[C@@H]2CCCN2C1=O [Compound 1] (H-AAVALLPAVLLALLAPCVQRKRQKLMPC-OH; disulfide 17-28),dermal tolerance,"[1]; male mini-pigs, 0, 0.11, 0.33, 1.1% w/w applied topically twice daily for 7 consecutive days",tolerated
same,no-observed-adverse-effect level (NOAEL),"[1]; male mini-pigs, highest dose tested: 0.75 grams of formulation applied twice daily for 7 days",1.1 % w/w
same,early deaths (mortality),"[1]; male mini-pigs, topical 0.11, 0.33, 1.1% w/w (F3, F2, F1), 0.75 g per site twice daily for 7 days",no early deaths
same,clinical signs or dermal effects,"[1]; male mini-pigs, topical 0.11, 0.33, 1.1% w/w, twice daily for 7 days",no clinical signs or dermal effects noted
same,dermal irritation,"[1]; minipig, in vivo",no signs of dermal irritation
same,general signs of toxicity,"[1]; minipig, in vivo",no general signs of toxicity
same,swelling and cellular infiltration in ear punch biopsies induced by PMA,[2]; 8 h post-challenge,reduced
same,skin wound healing and hair re-growth after repeated surgical trauma,[2]; in vivo,does not impede
same,inflammatory cell infiltration in skin biopsies in response to PMA,"[2]; topical formulation, dose-dependent treatment",reduced
same,ear swelling (ear thickness of intact ears) induced by PMA,[2]; topical treatment,attenuated
same,11 signs and symptoms of AD scored from patient diaries,"[3]; 1.1% as Formulation 4, BID for 7 days",net negative score
same,subjects whose vIGA-AD score worsened 2 units,[3]; at 2-week follow up,0 subjects
same,subjects whose EOT vIGA-AD score worsened 1 unit,[3]; at 2-week follow up (3 subjects),13%
same,subjects with improvement in vIGA-AD scores of 2 units,[3]; at 2-week follow up (10 subjects),44%
same,subjects with 0-clear or 1-almost clear skin,[3]; at 2-week post treatment,61%
same,subjects with improved vIGA-AD scores of 2 units,[3]; at EOT (6 subjects),26%
same,subjects with 0-clear or 1-almost clear vIGA-AD scores,[3]; at EOT (BID for 7 days),57%
same,"patients responding (reduction in treatable BSA or decrease in vIGA-AD severity score, or both)",[3]; [4],24 of 26
same,reduction in size of treatable BSA in responders,[3]; [4],20-100%
same,adverse events (AEs),[3]; in vivo,no adverse events
same,tolerability,[3]; in vivo,well tolerated
